According to ChEMBL document CHEMBL4373683, “Dual-target inhibitors of mycobacterial aminoacyl-tRNA synthetases among N-benzylidene-N'-thiazol-2-yl-hydrazines” (Medchemcomm, 2019):
Values after ≈ are worked out from the molar mass of the structure shown.

Tests used:
[1] = target: T1, Leucine--tRNA ligase (Mycobacterium tuberculosis (strain ATCC 25618 / H37Rv)) (UniProt P9WFV1); assay: (§1) Inhibition of Mycobacterium tuberculosis LeuRS expressed in Escherichia coli Rosetta (DE3) cells at 100 uM incubated for 30 mins followed by incubation with ATP, leucine, tRNA, iPPase for 10 mins and measured after 30 mins by BIOMOL Green reagent based plate reader analysis relative to control
T1 sequence (whole entry): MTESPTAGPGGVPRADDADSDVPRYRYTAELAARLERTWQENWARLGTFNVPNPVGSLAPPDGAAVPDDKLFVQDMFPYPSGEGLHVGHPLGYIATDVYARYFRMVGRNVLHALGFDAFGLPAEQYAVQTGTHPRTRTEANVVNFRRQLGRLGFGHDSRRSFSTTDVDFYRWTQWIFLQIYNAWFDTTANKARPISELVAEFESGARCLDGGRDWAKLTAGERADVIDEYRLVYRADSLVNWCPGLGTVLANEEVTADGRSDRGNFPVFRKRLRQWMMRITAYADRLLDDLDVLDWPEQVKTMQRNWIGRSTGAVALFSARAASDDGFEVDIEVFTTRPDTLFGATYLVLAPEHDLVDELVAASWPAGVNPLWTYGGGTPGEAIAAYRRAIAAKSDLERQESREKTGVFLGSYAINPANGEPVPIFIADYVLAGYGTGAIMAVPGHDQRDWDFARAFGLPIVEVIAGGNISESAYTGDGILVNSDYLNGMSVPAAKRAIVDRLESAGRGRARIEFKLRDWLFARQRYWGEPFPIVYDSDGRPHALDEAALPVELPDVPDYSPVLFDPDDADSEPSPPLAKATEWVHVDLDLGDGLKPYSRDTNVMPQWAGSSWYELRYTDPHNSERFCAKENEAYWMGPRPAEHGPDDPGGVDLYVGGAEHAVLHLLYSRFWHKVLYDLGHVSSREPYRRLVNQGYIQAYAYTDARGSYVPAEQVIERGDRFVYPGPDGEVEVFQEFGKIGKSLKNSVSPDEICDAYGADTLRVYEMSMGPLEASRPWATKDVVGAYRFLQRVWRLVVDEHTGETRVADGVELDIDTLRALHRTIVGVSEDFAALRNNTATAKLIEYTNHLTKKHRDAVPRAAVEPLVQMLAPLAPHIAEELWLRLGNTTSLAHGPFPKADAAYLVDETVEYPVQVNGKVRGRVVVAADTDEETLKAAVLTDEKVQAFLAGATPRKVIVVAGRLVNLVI

[2] = system: Mycobacterium tuberculosis H37Rv; assay: as §1, with “of recombinant” for “of”, “H37Rv C-terminal His6-tagged MetRS” for “LeuRS”, “BL21” for “Rosetta”, “(DE3) Star” for “(DE3)”, “methionine,” for “leucine,”
[3] = system: Saccharomyces cerevisiae; assay: Inhibition of yeast inorganic pyrophosphatase assessed as inhibition of BIOMOL-Green signal using inorganic pyrophosphate as substrate at 50 uM incubated for 10 mins in MtbMetRS reaction buffer and measured after 30 mins by BIOMOL-Green reagent based plate reader analysis
[4] = Inhibition of BIOMOL-Green signal at 50 uM in MtbMetRS reaction buffer in presence of 10 uM phosphate standard measured after 30 mins by plate reader analysis
[5] = system: Mycobacterium tuberculosis; assay type: functional; conditions: H37Rv ATCC 27294, 336 h
[6] = system: Mycobacterium tuberculosis; assay type: functional; conditions: H37Rv ATCC 27294, 336 h; remark: listed apart in the source
[7] = system: Mycobacterium tuberculosis; assay type: functional; conditions: H37Rv ATCC 27294, 336 h; remark: listed apart in the source
[8] = system: Mycobacterium tuberculosis; assay type: functional; conditions: H37Rv ATCC 27294, 168 h
[9] = system: Mycobacterium tuberculosis; assay type: functional; conditions: H37Rv ATCC 27294, 336 h; remark: listed apart in the source
[10] = system: Mycobacterium tuberculosis; assay type: functional; conditions: H37Rv ATCC 27294, 168 h; remark: listed apart in the source
[11] = system: Mycobacterium tuberculosis; assay type: functional; conditions: H37Rv ATCC 27294, 168 h; remark: listed apart in the source
[12] = target: T2, Leucine--tRNA ligase (Mycobacterium tuberculosis (strain ATCC 25618 / H37Rv), UniProt P9WFV1); assay: (§2) Inhibition of Mycobacterium tuberculosis LeuRS expressed in Escherichia coli Rosetta (DE3) cells incubated for 30 mins followed by incubation with ATP, leucine, tRNA, iPPase for 10 mins and measured after 30 mins by BIOMOL Green reagent based plate reader analysis
T2 sequence (P9WFV1 whole entry): T1 sequence (whole entry)

[13] = system: Mycobacterium tuberculosis; assay type: functional; conditions: H37Rv ATCC 27294, 168 h; remark: listed apart in the source
[14] = as §2, with “of recombinant” for “of”, “H37Rv C-terminal His6-tagged MetRS” for “LeuRS”, “BL21” for “Rosetta”, “(DE3) Star” for “(DE3)”, “methionine,” for “leucine,”

Question: Which inhibition [1] does the source give for CCOC(=O)c1sc(N/N=C/c2ccccc2C(F)(F)F)nc1C here?
Answer: Its inhibition is 34%.

Question: What about the inhibition [2] of the same molecule?
Answer: The inhibition was 45%.

Question: Which inhibition [1] does the source give for CCOC(=O)c1sc(N/N=C/c2cc(Br)c(O)c(Br)c2)nc1C here?
Answer: Its inhibition is 55%.

Question: And the inhibition [2]?
Answer: Its inhibition is 51%.

Question: With O=[N+]([O-])c1cc(/C=N/Nc2nc(-c3ccccc3)cs2)ccc1O as the molecule, how does the inhibition [3] read?
Answer: Its inhibition is under 35%.

Question: And the inhibition [1]?
Answer: The inhibition was 53%.

Question: What about the inhibition [4] of the same molecule?
Answer: Its inhibition is under 35%.

Question: And the inhibition [2]?
Answer: Its inhibition is 72%.

Question: For O=[N+]([O-])c1cccc(-c2csc(N/N=C/c3cccc(Oc4ccccc4)c3)n2)c1, which inhibition [1] is on record?
Answer: Its inhibition is 11%.

Question: And the inhibition [2]?
Answer: Its inhibition is 65%.

Question: Which MIC [5] does the source give for COc1cc(/C=N/Nc2nc(-c3ccc([N+](=O)[O-])cc3)cs2)cc([N+](=O)[O-])c1O here?
Answer: Its MIC is over 50 µM.

Question: What about the MIC [6] of the same molecule?
Answer: Its MIC is at least 50 µM.

Question: What about the MIC [7] of the same molecule?
Answer: The MIC was over 50 µM.

Question: And the MIC [8]?
Answer: The MIC was 50 µM (≈ 20.8 µg/mL).

Question: What about the MIC [9] of the same molecule?
Answer: The MIC was over 50 µM.

Question: What about the inhibition [1] of the same molecule?
Answer: Its inhibition is 103%.

Question: What about the MIC [10] of the same molecule?
Answer: Its MIC is over 50 µM.

Question: And the MIC [11]?
Answer: Its MIC is 50 µM (≈ 20.8 µg/mL).

Question: What about the IC50 [12] of the same molecule?
Answer: Its IC50 is 5.8 µM.

Question: What about the MIC [13] of the same molecule?
Answer: Its MIC is at least 50 µM.

Question: What about the IC50 ([14]; read-out: IC50) of the same molecule?
Answer: Its IC50 is 4.2 µM.

Question: And the inhibition [2]?
Answer: The inhibition was 94%.

Question: Which results are given for O=[N+]([O-])c1cccc(-c2csc(N/N=C/c3ccccc3Br)n2)c1?
Answer: MIC [5]: > 50 µM; MIC [6]: > 50 µM; MIC [7]: > 50 µM; MIC [8]: ≥ 50 µM; MIC [9]: 50 µM (≈ 20.2 µg/mL); inhibition [1]: 80%; MIC [10]: 37 µM (≈ 14.9 µg/mL); MIC [11]: > 50 µM; IC50 [12]: 8.9 µM; MIC [13]: 37 µM (≈ 14.9 µg/mL); IC50 ([14]; read-out: IC50): 6.5 µM; inhibition [2]: 93%

Question: For CCOC(=O)c1sc(N/N=C/c2ccc(Br)cc2)nc1C, which inhibition [3] is on record?
Answer: Its inhibition is under 35%.

Question: What about the inhibition [1] of the same molecule?
Answer: Its inhibition is 39%.

Question: And the inhibition [4]?
Answer: Its inhibition is under 35%.

Question: What about the inhibition [2] of the same molecule?
Answer: The inhibition was 111%.

Question: What does the source list for Cc1csc(N/N=C/c2ccccc2Br)n1?
Answer: IC50 [12]: 38.4 µM; IC50 ([14]; read-out: IC50): 123 µM

Question: For Brc1ccccc1/C=N/Nc1nc(-c2ccccc2)cs1, which IC50 [12] is on record?
Answer: The IC50 was 24.1 µM.

Question: And the IC50 ([14]; read-out: IC50)?
Answer: The IC50 was 37.5 µM.

Question: With NNC(=O)c1ccncc1 [ISONIAZID] as the molecule, how does the MIC [5] read?
Answer: The MIC was 0.6 µM (≈ 0.0823 µg/mL).

Question: And the MIC [6]?
Answer: Its MIC is 0.3 µM (≈ 0.0411 µg/mL).

Question: What about the MIC [7] of the same molecule?
Answer: Its MIC is 0.1 µM (≈ 0.0137 µg/mL).

Question: What about the MIC [8] of the same molecule?
Answer: The MIC was 0.6 µM (≈ 0.0823 µg/mL).

Question: And the MIC [9]?
Answer: The MIC was 0.39 µM (≈ 0.0535 µg/mL).

Question: What about the MIC [10] of the same molecule?
Answer: Its MIC is 0.07 µM (≈ 0.0096 µg/mL).

Question: And the MIC [11]?
Answer: The MIC was 0.1 µM (≈ 0.0137 µg/mL).

Question: And the MIC [13]?
Answer: Its MIC is 0.39 µM (≈ 0.0535 µg/mL).

Question: With COc1cc(/C=N/Nc2nccs2)cc(Br)c1OCc1ccccc1 as the molecule, how does the inhibition [3] read?
Answer: The inhibition was under 35%.

Question: And the inhibition [1]?
Answer: Its inhibition is 55%.

Question: And the inhibition [4]?
Answer: Its inhibition is under 35%.

Question: And the inhibition [2]?
Answer: The inhibition was 106%.

Question: For Cc1csc(N/N=C/c2ccc(C(=O)O)cc2)n1, which inhibition [1] is on record?
Answer: The inhibition was -4%.

Question: Which inhibition [1] does the source give for COC(=O)c1sc(N/N=C/c2ccc(C(=O)O)cc2)nc1C here?
Answer: The inhibition was 12%.

Question: What does the source list for COc1cc(/C=N/Nc2nccs2)ccc1OC(=O)c1ccc(Cl)cc1Cl?
Answer: inhibition [3]: < 35%; inhibition [1]: 73%; inhibition [4]: < 35%; inhibition [2]: 142%

Question: Which inhibition [1] does the source give for CCCCCCOc1ccc(/C=N/Nc2nccs2)cc1OC here?
Answer: Its inhibition is 47%.

Question: What about the inhibition [2] of the same molecule?
Answer: Its inhibition is 62%.

Question: Which inhibition [1] does the source give for CCOC(=O)Cc1csc(N/N=C/c2ccc(C(=O)O)cc2)n1 here?
Answer: The inhibition was 12%.

Question: And the inhibition [2]?
Answer: The inhibition was 22%.

Question: With COc1ccc(/C=N/Nc2nc(C)cs2)cc1Br as the molecule, how does the IC50 [12] read?
Answer: Its IC50 is 95 µM.

Question: What about the IC50 [14] of the same molecule?
Answer: Its IC50 is “Not Active”.

Question: Which inhibition [1] does the source give for COc1ccc(/C=N/Nc2nc(C)c(C)s2)cc1 here?
Answer: Its inhibition is 1%.

Question: What about the inhibition [2] of the same molecule?
Answer: Its inhibition is 1%.

Question: Which inhibition [1] does the source give for CCOC(=O)c1sc(N/N=C/c2cccc(O)c2)nc1C here?
Answer: The inhibition was 1%.

Question: And the inhibition [2]?
Answer: Its inhibition is 71%.

Question: Which inhibition [1] does the source give for CCOc1ccc(/C=N/Nc2nc(C)c(C(C)=O)s2)cc1 here?
Answer: Its inhibition is 20%.

Question: What about the inhibition [2] of the same molecule?
Answer: Its inhibition is 53%.

Question: For CCc1ccc(/C=N/Nc2nc(-c3cccc([N+](=O)[O-])c3)cs2)cc1, which inhibition [1] is on record?
Answer: Its inhibition is 3%.

Question: What about the inhibition [2] of the same molecule?
Answer: Its inhibition is 27%.
